In ChEMBL document CHEMBL1132434, “Antitumor benzothiazoles. 8. Synthesis, metabolic formation, and biological properties of the C- and N-oxidation products of antitumor 2-(4-aminophenyl)benzothiazoles” (J Med Chem, 1999):

Legend:
MCF7 [1] = assay: In vitro cytotoxicity against MCF-7 human mammary carcinoma cells; type: functional, cell-based
T47D = assay: Growth inhibition of the T-47D Breast cancer cell line for 2-day in vitro assay.; type: functional; conditions: Homo sapiens, 48 h
OVCAR-4 = assay: Growth inhibition of the OVCAR-4 Ovarian cancer cell line for 2-day in vitro assay.; type: functional; conditions: Homo sapiens, OVCAR-4, 48 h
SF-268 = assay: Growth inhibition of the SF-268 CNS cancer cell line for 2-day in vitro assay.; type: functional; conditions: Homo sapiens, SF-268, 48 h
HT-29 = assay: Growth inhibition of the HT-29 colon cancer cell line for 2-day in vitro assay.; type: functional; conditions: Homo sapiens, HT-29, 48 h
UACC-257 = assay: Growth inhibition of the UACC-257 Melanoma cancer cell line for 2-day in vitro assay.; type: functional; conditions: Homo sapiens, UACC-257, 48 h
PC-3 = assay: Growth inhibition of the PC-3 Prostate cancer cell line for 2-day in vitro assay.; type: functional; conditions: Homo sapiens, PC-3, 48 h
NCI-H23 = assay: Growth inhibition of the NCI-H23 non-small cell lung cancer cell line for 2-day in vitro assay.; type: functional; conditions: Homo sapiens, NCI-H23, 48 h
SW-620 = assay: Growth inhibition of the SW-620 colon cancer cell line for 2-day in vitro assay.; type: functional; conditions: Homo sapiens, SW-620, 48 h
Malme-3M = assay: Growth inhibition of the MALME-3M Melanoma cancer cell line for 2-day in vitro assay.; type: functional; conditions: Homo sapiens, 48 h
SNB-19 = assay: Growth inhibition of the SNB19 CNS cancer cell line for 2-day in vitro assay.; type: functional; conditions: Homo sapiens, SNB-19, 48 h
SF-539 = assay: Growth inhibition of the SF-539 CNS cancer cell line for 2-day in vitro assay.; type: functional; conditions: Homo sapiens, SF-539, 48 h
Hs-578T = assay: Growth inhibition of the Hs 578.T Breast cancer cell line for 2-day in vitro assay.; type: functional; conditions: Homo sapiens, 48 h
EKVX = assay: Growth inhibition of the EKVX non-small cell lung cancer cell line for 2-day in vitro assay.; type: functional; conditions: Homo sapiens, 48 h
SR = assay: Growth inhibition of the SR leukemia cell line for 2-day in vitro assay.; type: functional; conditions: Homo sapiens, 48 h
MOLT-4 = assay: Growth inhibition of the MOLT-4 leukemia cell line for 2-day in vitro assay.; type: functional; conditions: Homo sapiens, MOLT-4, 48 h
HCT-116 = assay: Growth inhibition of the HCT116 colon cancer cell line for 2-day in vitro assay.; type: functional; conditions: Homo sapiens, HCT-116, 48 h
MDA-MB-435 = assay: Growth inhibition of the […] Breast cancer cell line for 2-day in vitro assay.; type: functional; conditions: Homo sapiens, MDA-MB-435, 48 h
MDA-N = assay: Growth inhibition of the MDA-N Breast cancer cell line for 2-day in vitro assay.; type: functional; conditions: Homo sapiens, 48 h
A498 = assay: Growth inhibition of the A498 Renal cancer cell line for 2-day in vitro assay.; type: functional; conditions: Homo sapiens, A498, 48 h
HOP-62 = assay: Growth inhibition of the HOP-62 non-small cell lung cancer cell line for 2-day in vitro assay.; type: functional; conditions: Homo sapiens, HOP-62, 48 h
HL-60 = assay: Growth inhibition of the HL-60(TB) leukemia cell line for 2-day in vitro assay.; type: functional; conditions: Homo sapiens, HL-60, 48 h
LOX IMVI = assay: Growth inhibition of the LOX IMVI Melanoma cancer cell line for 2-day in vitro assay.; type: functional; conditions: Homo sapiens, 48 h
TK-10 = assay: Growth inhibition of the TK-10 Renal cancer cell line for 2-day in vitro assay.; type: functional; conditions: Homo sapiens, TK-10, 48 h
HCT-15 = assay: Growth inhibition of the HCT-15 colon cancer cell line for 2-day in vitro assay.; type: functional; conditions: Homo sapiens, HCT-15, 48 h
SK-MEL-28 = assay: Growth inhibition of the SK-MEL-28 Melanoma cancer cell line for 2-day in vitro assay.; type: functional; conditions: Homo sapiens, SK-MEL-28, 48 h
NCI/ADR-RES = assay: Growth inhibition of the NCI/ADR-RES Breast cancer cell line for 2-day in vitro assay.; type: functional; conditions: Homo sapiens, 48 h
CCRF-CEM = assay: Growth inhibition of the CCRF-CEM leukemia cell line for 2-day in vitro assay.; type: functional; conditions: Homo sapiens, 48 h
UACC-62 = assay: Growth inhibition of the UACC-62 Melanoma cancer cell line for 2-day in vitro assay.; type: functional; conditions: Homo sapiens, UACC-62, 48 h
NCI-H460 = assay: Growth inhibition of the NCI-H460 non-small cell lung cancer cell line for 2-day in vitro assay.; type: functional; conditions: Homo sapiens, NCI-H460, 48 h
A549 = assay: Growth inhibition of the A549/ATCC non-small cell lung cancer cell line for 2-day in vitro assay.; type: functional; conditions: Homo sapiens, A549, 48 h
SK-OV-3 = assay: Growth inhibition of the SK-OV-3 Ovarian cancer cell line for 2-day in vitro assay.; type: functional; conditions: Homo sapiens, SK-OV-3, 48 h
SK-MEL-5 = assay: Growth inhibition of the SK-MEL-5 Melanoma cancer cell line for 2-day in vitro assay.; type: functional; conditions: Homo sapiens, SK-MEL-5, 48 h
M14 = assay: Growth inhibition of the M14 Melanoma cancer cell line for 2-day in vitro assay.; type: functional; conditions: Homo sapiens, M14, 48 h
UO-31 = assay: Growth inhibition of the UO-31 Renal cancer cell line for 2-day in vitro assay.; type: functional; conditions: Homo sapiens, UO-31, 48 h
HCC 2998 = assay: Growth inhibition of the HCC2998 colon cancer cell line for 2-day in vitro assay.; type: functional; conditions: Homo sapiens, HCC 2998, 48 h
OVCAR-8 = assay: Growth inhibition of the OVCAR-8 Ovarian cancer cell line for 2-day in vitro assay.; type: functional; conditions: Homo sapiens, OVCAR-8, 48 h
SNB-75 = assay: Growth inhibition of the SNB-75 CNS cancer cell line for 2-day in vitro assay.; type: functional; conditions: Homo sapiens, SNB-75, 48 h
K562 = assay: Growth inhibition of the K-562 leukemia cell line for 2-day in vitro assay.; type: functional; conditions: Homo sapiens, K562, 48 h
RXF 393 = assay: Growth inhibition of the RXF-393 Renal cancer cell line for 2-day in vitro assay.; type: functional; conditions: Homo sapiens, RXF 393, 48 h
NCI-H522 = assay: Growth inhibition of the NCI-H522 non-small cell lung cancer cell line for 2-day in vitro assay.; type: functional; conditions: Homo sapiens, NCI-H522, 48 h
SF-295 = assay: Growth inhibition of the SF-295 CNS cancer cell line for 2-day in vitro assay.; type: functional; conditions: Homo sapiens, SF-295, 48 h
BT-549 = assay: Growth inhibition of the BT-549 Breast cancer cell line for 2-day in vitro assay.; type: functional; conditions: Homo sapiens, BT-549, 48 h
MDA-MB-231 = assay: Growth inhibition of the […] Breast cancer cell line for 2-day in vitro assay.; type: functional; conditions: Homo sapiens, MDA-MB-231, 48 h
SK-MEL-2 = assay: Growth inhibition of the SK-MEL-2 Melanoma cancer cell line for 2-day in vitro assay.; type: functional; conditions: Homo sapiens, SK-MEL-2, 48 h
KM12 = assay: Growth inhibition of the KM12 colon cancer cell line for 2-day in vitro assay.; type: functional; conditions: Homo sapiens, KM12, 48 h
COLO 205 = assay: Growth inhibition of the COLO-205 colon cancer cell line for 2-day in vitro assay.; type: functional; conditions: Homo sapiens, COLO 205, 48 h
786-0 = assay: Growth inhibition of the 786-O Renal cancer cell line for 2-day in vitro assay.; type: functional; conditions: Homo sapiens, 786-0, 48 h
U-251 = assay: Growth inhibition of the U251 CNS cancer cell line for 2-day in vitro assay.; type: functional; conditions: Homo sapiens, U-251, 48 h
DU-145 = assay: Growth inhibition of the DU-145 Prostate cancer cell line for 2-day in vitro assay.; type: functional; conditions: Homo sapiens, DU-145, 48 h
SN12C = assay: Growth inhibition of the SN12C Renal cancer cell line for 2-day in vitro assay.; type: functional; conditions: Homo sapiens, 48 h
NCI-H226 = assay: Growth inhibition of the NCI-H226 non-small cell lung cancer cell line for 2-day in vitro assay.; type: functional; conditions: Homo sapiens, NCI-H226, 48 h
NCI-H322M = assay: Growth inhibition of the NCI-H322M non-small cell lung cancer cell line for 2-day in vitro assay.; type: functional; conditions: Homo sapiens, 48 h
MCF7 [2] = assay: Growth inhibition of the MCF-7 Breast cancer cell line for 2-day in vitro assay.; type: functional; conditions: Homo sapiens, MCF7, 48 h
ACHN = assay: Growth inhibition of the ACHN Renal cancer cell line for 2-day in vitro assay.; type: functional; conditions: Homo sapiens, 48 h

`Nc1ccc(-c2nc3ccccc3s2)cc1` showed an IC50 (MCF7 [1]) of less than 0.001 µM.
`CC(=O)Nc1ccc(-c2nc3ccc(O)cc3s2)cc1Cl` was tested, and the IC50 (MCF7 [1]) was 71.2 µM.
For `Nc1ccc(-c2nc3ccc(O)cc3s2)cc1Cl`, the IC50 (MCF7 [1]) was 54.5 µM.
`Cc1cc(-c2nc3cccc(O)c3s2)ccc1N` showed an IC50 (MCF7 [1]) of 90.8 µM.
`Nc1ccc(-c2nc3cc(O)ccc3s2)cc1` was tested, and the IC50 (MCF7 [1]) was greater than 100 µM.
`Cc1cc(-c2nc3ccccc3s2)ccc1N` was tested, and the GI50 (T47D) was 0.107 µM, the GI50 (OVCAR-4) was 0.55 µM and the GI50 (SF-268) was greater than 100 µM. The GI50 (HT-29) was 29.5 µM, the GI50 (UACC-257) was 74.1 µM and the GI50 (PC-3) was 31.6 µM. The GI50 (NCI-H23) was 58.9 µM, the GI50 (SW-620) was greater than 100 µM and the GI50 (Malme-3M) was greater than 100 µM. The GI50 (SNB-19) was greater than 100 µM, the GI50 (SF-539) was greater than 100 µM and the GI50 (Hs-578T) was greater than 100 µM. The GI50 (EKVX) was 34.7 µM, the GI50 (SR) was 17.4 µM and the GI50 (MOLT-4) was 19.5 µM. For the same molecule, the GI50 (HCT-116) was 43.7 µM, the GI50 (MDA-MB-435) was 79.4 µM and the GI50 (MDA-N) was 97.7 µM. For the same molecule, the GI50 (A498) was 42.7 µM, the GI50 (HOP-62) was greater than 100 µM and the GI50 (HL-60) was 8.71 µM. For the same molecule, the GI50 (LOX IMVI) was 37.2 µM, the GI50 (TK-10) was 0.186 µM and the GI50 (HCT-15) was 47.9 µM. For the same molecule, the IC50 (MCF7 [1]) was less than 0.001 µM, the GI50 (SK-MEL-28) was greater than 100 µM and the GI50 (NCI/ADR-RES) was 93.3 µM. For the same molecule, the GI50 (CCRF-CEM) was 6.46 µM, the GI50 (UACC-62) was 70.8 µM and the GI50 (NCI-H460) was 53.7 µM. The GI50 (A549) was 28.8 µM, the GI50 (SK-OV-3) was greater than 100 µM and the GI50 (SK-MEL-5) was 21.9 µM. The GI50 (M14) was 57.5 µM, the GI50 (UO-31) was 6.46 µM and the GI50 (HCC 2998) was 0.251 µM. For the same molecule, the GI50 (OVCAR-8) was greater than 100 µM, the GI50 (SNB-75) was 33.1 µM and the GI50 (K562) was 60.3 µM. It also gave a GI50 (RXF 393) of 67.6 µM, a GI50 (NCI-H522) of 32.4 µM and a GI50 (SF-295) of 64.6 µM. It also gave a GI50 (BT-549) of 66.1 µM, a GI50 (MDA-MB-231) of 66.1 µM and a GI50 (SK-MEL-2) greater than 100 µM. The GI50 (KM12) was greater than 100 µM, the GI50 (COLO 205) was 51.3 µM and the GI50 (786-0) was greater than 100 µM. The GI50 (U-251) was 66.1 µM, the GI50 (DU-145) was 61.7 µM and the GI50 (SN12C) was 50.1 µM. The GI50 (NCI-H226) was 0.355 µM, the GI50 (NCI-H322M) was 43.7 µM and the GI50 (MCF7 [2]) was 0.0316 µM. For the same molecule, the GI50 (ACHN) was 51.3 µM.
Work on `CC(=O)Nc1ccc(-c2nc3ccc(O)cc3s2)cc1C` yielded an IC50 (MCF7 [1]) of 46.1 µM.
For `CC(=O)Nc1ccc(-c2nc3cc(O)ccc3s2)cc1C`, the IC50 (MCF7 [1]) was 72.5 µM.
`Nc1ccc(-c2nc3c(O)cccc3s2)cc1` showed an IC50 (MCF7 [1]) greater than 100 µM.
`CC(=O)ON(C(C)=O)c1ccc(-c2nc3ccccc3s2)cc1C` gave an IC50 (MCF7 [1]) of 0.055 µM.
Work on `Cc1cc(-c2nc3c(O)cccc3s2)ccc1N` yielded an IC50 (MCF7 [1]) greater than 100 µM.
`Nc1ccc(-c2nc3ccccc3s2)cc1I` gave an IC50 (MCF7 [1]) of less than 0.001 µM.
